In ChEMBL document CHEMBL3044613, “Insecticidal and Neuroblocking Activities of Thiacloprid and Its Acyclic Analogues and Their Related Cyanoguanidine Derivatives” (J Pestic Sci, 2002):
The source made the active and inactive calls. The rule behind the calls is not given here.

What was measured:
[1] = tested on: Periplaneta americana; test: Insecticidal activity against Periplaneta americana (American cockroach) assessed as killing compound injected into abdomen of cockroach after 24 hr in presence of 50 ug piperonyl butoxide oxidative metabolism inhibitor and 50 ug propargyl propyl benzenephosphonate inhibitor of hydrolytic; assay type: functional
[2] = tested on: Periplaneta americana; test: Insecticidal activity against Periplaneta americana (American cockroach) assessed as neuroblocking concentration; assay type: functional
[3] = Octanol-water partition coefficient, log P of the compound at 23 degC by shake flask method; assay type: physicochemical
[4] = tested on: Periplaneta americana; test: Insecticidal activity against Periplaneta americana (American cockroach) assessed as killing compound injected into abdomen of cockroach after 24 hr; assay type: functional
[5] = tested on: Periplaneta americana; test: Insecticidal activity against Periplaneta americana (American cockroach) assessed as killing compound injected into abdomen of cockroach after 24 hr in presence of 50 ug propargyl propyl benzenephosphonate inhibitor of hydrolytic metabolism of tetramethrin pyrethroid; assay type: functional
[6] = tested on: Periplaneta americana; test: Insecticidal activity against Periplaneta americana (American cockroach) assessed as increase in frequency of impulses in nerve preparation measured immediately after treatment at 10^-5 M by electrophysiological method; assay type: functional, organism-based
[7] = tested on: Periplaneta americana; test: Insecticidal activity against Periplaneta americana (American cockroach) assessed as killing compound injected into abdomen of cockroach after 24 hr in presence of 50 ug piperonyl butoxide oxidative metabolism inhibitor; assay type: functional

Structure (SMILES) | MLD [1] [nmol] | Activity [2] [µM] | logP [3] | MLD [4] [nmol] | MLD [5] [nmol] | Activity [6] | MLD [7] [nmol]
CCN/C(=N\C#N)NCc1ccc(Cl)nc1 | >170 | >170 | 0.86 | >170 |  |  | 
CN/C(=N\C#N)NCc1ccc(Cl)nc1 | 8.9 | 110 | 0.84 | >180 | 18 | Active | 180
N#C/N=C1\SCCN1Cc1ccc(Cl)nc1 [THIACLOPRID] | 0.21 | 2.6 | 1.2 | 21 | 0.46 |  | 5.9
CS/C(=N\C#N)N(C)Cc1ccc(Cl)nc1 | 2.5 | 6 | 1.4 | 160 | 6.3 |  | 71
CN/C(=N\C#N)N(C)Cc1ccc(Cl)nc1 | 54 | >170 | 0.78 | 68 |  |  | 
CCN/C(=N\C#N)N(C)Cc1ccc(Cl)nc1 | 40 | >160 | 1.02 | 26 |  |  | 
O=[N+]([O-])/N=C1\NCCN1Cc1ccc(Cl)nc1 [IMIDACLOPRID] | 0.07 | 2.3 | 0.6 | 1.1 | 0.19 |  | 0.55
N#C/N=C(\NCc1ccccc1)NCc1ccc(Cl)nc1 | 66 | 150 |  | >66 |  |  | 
CN(C)/C(=N\C#N)NCc1ccc(Cl)nc1 | 140 | >170 | 0.66 | >170 |  |  | 
CS/C(=N\C#N)NCc1ccc(Cl)nc1 | 0.66 | 1.7 | 1.27 | >83 | 0.83 |  | 21
CN(Cc1ccc(Cl)nc1)/C(=N/C#N)NCc1ccccc1 | 6.3 | 150 | 1.32 | 81 | 8.1 |  | 25
CN(Cc1ccc(Cl)nc1)/C(N)=N/C#N | 1.2 | 9.6 | 0.71 | 22 | 0.71 |  | 14
CN(C)/C(=N\C#N)N(C)Cc1ccc(Cl)nc1 | 20 | >400 | 0.66 | 320 | 32 |  | 200
